Reference: patent US4234579A, “Penicillanic acid 1,1-dioxides as β-lactamase inhibitors” (priority 1979, dated 1980)
Where two headings read alike, the source gives them in different places. Each block holds one compound with its values, some of them ahead of it.

Legend:
Experiment in all cases: Mode MIC of antibiotic and PA 1,1-Dioxide alone and in combination
Format in all cases: cell-based
Staphylococcus aureus = conditions: for MIC: Staphylococcus aureus, 18 h, read-out: Mode MIC alone
From the text: (§1) As indicated hereinbefore, the compounds of formula I, wherein R^1 is hydrogen or an ester-forming residue readily hydrolyzable in vivo, are antibacterial agents of medium potency. […] The procedure which is followed is the one recommended by the International Collaborative Study on Antibiotic Sensitivity Testing (Ericcson and Sherris, Acta. Pathologica et Microbiologia Scandinav, Supp. 217, Section B: 64-68 [1971]), and employs brain heart infusion (BHI) agar and the inocula replicating device. Overnight growth tubes are diluted 100 fold for use as the standard inoculum (20,000-10,000 cells in approximately 0.002 ml. are placed on the agar surface; 20 ml. of BHI agar/dish). Twelve 2 fold dilutions of the test compound are employed, with initial concentration of the test drug being 200 mcg./ml. Single colonies are disregarded when reading plates after 18 hrs. at 37° C. The susceptibility (MIC) of the test organism is accepted as the lowest concentration of compound capable of producing complete inhibition of growth as judged by the naked eye.
(§2) The manner in which the said compounds of the formula I increase the effectiveness of a β-lactam antibiotic can be appreciated by reference to experiments in which the MIC of a given antibiotic alone, and a compound of the formula I wherein R^1 is hydrogen, alone, are measured. These MIC's are then compared with the MIC values obtained with a combination of the given antibiotic and the compound of the formula I wherein R^1 is hydrogen. […] The MIC values of combinations are measured using the method described by Barry and Sabath in "Manual of Clinical Microbiology", edited by Lenette, Spaulding and Truant, 2nd Edition, 1974, American Society for Microbiology.
(§3) From Table II, it can be seen that against 19 ampicillin-resistant strains of Staphylococcus aureus, the mode MIC of ampicillin, and of penicillanic acid 1,1-dioxide, is 200 mcg./ml. […] The other entries in Table II show enhancement of the antibacterial effectiveness of ampicillin against 26 ampicillin resistant strains of Haemophilus influenzae, 18 ampicillin resistant strains of Klebsiella pneumoniae, and 15 strains of the anerobe Bacteroides fragilis. Tables III, IV and V show enhancement of the antibacterial potency of benzylpenicillin (penicillin G) carbenicillin (α-carboxybenzylpenicillin) and cefazolin, respectively, against strains of S. aureus, H. influenzae, K. pneumoniae and Bacteroides fragilis.

Klebsiella pneumoniae = conditions: for MIC: Klebsiella pneumoniae, 18 h, read-out: Mode MIC alone
From the text: as §1, §2, §3

Bacteroides fragilis = conditions: for MIC: Bacteroides fragilis, 18 h, read-out: Mode MIC alone
From the text: as §1, §2, §3

Haemophilus influenzae = conditions: for MIC: Haemophilus influenzae, 18 h, alone
From the text: as §1, §2, §3

- MIC (Staphylococcus aureus; Table II, 19 ampicillin-resistant strains, alone): 200 µg/mL
- Mode MIC's of ampicillin and PA 1,1-Dioxide in combination (Staphylococcus aureus; Table II, 19 ampicillin-resistant strains, ampicillin + PA 1,1-Dioxide in combination): 1.56 µg/mL
- MIC (Klebsiella pneumoniae; Table II, 18 ampicillin resistant strains, alone): > 400 µg/mL
- Mode MIC's of ampicillin and PA 1,1-Dioxide in combination (Klebsiella pneumoniae; Table II, 18 ampicillin resistant strains, ampicillin + PA 1,1-Dioxide in combination): 6.25 µg/mL
- MIC (Bacteroides fragilis; Table II, 15 strains, alone): 50 µg/mL
- Mode MIC's of ampicillin and PA 1,1-Dioxide in combination (Bacteroides fragilis; Table II, 15 strains, ampicillin + PA 1,1-Dioxide in combination): 1.56 µg/mL
- MIC (Haemophilus influenzae; Table II, 26 ampicillin resistant strains, read-out: Mode MIC alone): 200 µg/mL
- Mode MIC's of ampicillin and PA 1,1-Dioxide in combination (Haemophilus influenzae; Table II, 26 ampicillin resistant strains, ampicillin + PA 1,1-Dioxide in combination): 0.78 µg/mL
Structure (SMILES): CC1(C)S[C@@H]2[C@H](NC(=O)[C@H](N)c3ccccc3)C(=O)N2[C@H]1C(=O)O [ampicillin, reference compound]

- MIC (Staphylococcus aureus; Table IV, 20 strains, alone): 12.5 µg/mL
- Mode MIC's of carbenicillin and PA 1,1-Dioxide in combination (Staphylococcus aureus; Table IV, 20 strains, carbenicillin + PA 1,1-Dioxide in combination): 6.25 µg/mL
- MIC (Klebsiella pneumoniae; Table IV, 16 strains, alone): > 400 µg/mL
- Mode MIC's of carbenicillin and PA 1,1-Dioxide in combination (Klebsiella pneumoniae; Table IV, 16 strains, carbenicillin + PA 1,1-Dioxide in combination): 50 µg/mL
- MIC (Bacteroides fragilis; Table IV, 15 strains, alone): 50 µg/mL
- Mode MIC's of carbenicillin and PA 1,1-Dioxide in combination (Bacteroides fragilis; Table IV, 15 strains, carbenicillin + PA 1,1-Dioxide in combination): 3.12 µg/mL
- MIC (Haemophilus influenzae; Table IV, 25 strains, read-out: Mode MIC alone): 6.25 µg/mL
- Mode MIC's of carbenicillin and PA 1,1-Dioxide in combination (Haemophilus influenzae; Table IV, 25 strains, carbenicillin + PA 1,1-Dioxide in combination): 0.39 µg/mL
Structure (SMILES): CC1(C)S[C@@H]2[C@H](NC(=O)C(C(=O)O)c3ccccc3)C(=O)N2[C@H]1C(=O)O (stereo partly drawn) [carbenicillin, α-carboxybenzylpenicillin, reference compound]

Structure (SMILES): CC1(C)S[C@@H]2[C@H](NC(=O)Cc3ccccc3)C(=O)N2[C@H]1C(=O)O [penicillin G, reference compound]
- MIC (Staphylococcus aureus): 200 µg/mL
- Mode MIC's of penicillin G and PA 1,1-Dioxide in combination (Staphylococcus aureus; Table III, 20 strains, penicillin G + PA 1,1-Dioxide in combination): 3.12 µg/mL
- MIC (Klebsiella pneumoniae): 400 µg/mL
- Mode MIC's of penicillin G and PA 1,1-Dioxide in combination (Klebsiella pneumoniae; Table III, 24 strains, penicillin G + PA 1,1-Dioxide in combination): 25 µg/mL
- MIC (Bacteroides fragilis): 25 µg/mL
- Mode MIC's of penicillin G and PA 1,1-Dioxide in combination (Bacteroides fragilis; Table III, 15 strains, penicillin G + PA 1,1-Dioxide in combination): 1.56 µg/mL
- MIC (Haemophilus influenzae; read-out: Mode MIC alone, Table III, 25 strains): 50 µg/mL
- Mode MIC's of penicillin G and PA 1,1-Dioxide in combination (Haemophilus influenzae; Table III, 25 strains, penicillin G + PA 1,1-Dioxide in combination): 0.78 µg/mL
